Consider 2 compounds from patent US9687493B2, “Use of NK-1 receptor antagonists for treating hypomagnesemia, neurogenic inflammation, and cardiac dysfunction associated with EGFR-blocking drugs” (THE GEORGE WASHINGTON UNIVERSITY, priority 2014, dated 2017).

Structures are written as SMILES.

For one series, the system named is neutrophils. As for the experimental part: (§1) At periodic intervals, blood was collected (˜0.5 ml) aseptically from the tail of anaesthetized rats (2% isoflurane, EZ Anesthesia Chamber with nose cone)(13, 14) in sterile microtainer plasma separator tubes containing heparin and the protease inhibitor, aprotinin (Sigma Chemicals, St. Louis Mo.) to yield final blood concentrations of 10.74 units/ml and 0.016 units/ml, respectively. For subsequent samplings, the scab was carefully removed, and the process was repeated. Plasma was obtained after centrifugation (12,000 rpm, 2 min, RT, IDEXX StatSpin VT, Iris International, Inc., Westwood, Mass.). Tail bleed samples were used for assessment of plasma Mg, and substance P levels. Sacrifice blood samples (˜8 ml collected in heparin plus aprotinin containing BD vacutainer SST tubes) were taken from anaesthetized, heparinized (0.3-0.4 ml 358 units/ml heparin in 0.9% NaCl, i.p.) rats from either the vena cava or by cardiac puncture, and were centrifuged (3,500 rpm, 10 min, RT). In addition to the above plasma parameters, sacrifice plasma was also assayed for 8-isoprostane levels, and the whole blood samples were processed for neutrophil isolation and assessment of superoxide anion production.
At sacrifice, whole blood (3 ml) samples were obtained; neutrophils were isolated by a step-gradient centrifugation method (13,−16). Superoxide anion production from neutrophils (0.5-0.75×10^6/ml) with (stimulated) or without (basal) PMA (phorbol myristate acetate, 100 ng/ml) was assayed in a phosphate buffer (pH 7.6) containing 5 mM glucose, 1 mM CaCl2, 1 mM MgCl2, and 75 μM cytochrome c±50 μg SOD. Superoxide generation was estimated as SOD-inhibitable reduction of cytochrome c using the extinction coefficient: E550=2.1×10^4M^−1cm^−1.
Hypomagnesemia alone in rodents can promote neutrophil free radical generating activity (Mak et al., Exp. & Clin. Cardiol. 2011, 16(4):121-124; Mak et al., Magnesium Res 2003, 16(2):91-97). In the present study, blood was sampled from rats treated with erlotinib (starting 10 mg/kg/day, oral) and/or Emend (aprepitant, starting 2 mg/kg/day, oral) at 9 weeks of exposure. Circulating neutrophil basal superoxide generating activity was determined as SOD-inhibitable reduction of cytochrome c (FIG. 3A). Plasma 8-isoprostane was assessed by a colorimetric ELISA kit (FIG. 3B). Values for erlotinib±Emend rats were compared to time-matched controls, and are means±SEM of 4-6 rats per group. ** p<0.01 versus control; ++p<0.01 versus erlotinib alone. […] Enhanced systemic oxidative stress, as represented by increased total plasma 8-isoprostane content (FIG. 3B), was prominent by 9 weeks (210% increase, p<0.01).

The conditions of series [1]: rat, in vivo. On the procedure:
Experiments on animals were conducted in accordance with the principles given in the US Department of Health and Human Services Guide for the Care and Use of Laboratory Animals and were approved by The George Washington University Institutional Animal Care and Use Committee. Male Sprague-Dawley rats (125-150 g) were purchased from Hilltop Lab Animals, Inc. (Scottdale, Pa.). After 1 week of quarantine, all age-matched rats were placed on an ad libitum Mg normal diet (25 mmole magnesium oxide/kg food regarded as 100% recommended daily allowance for rodents) obtained from Harlan-Teklad (Madison, Wis.) containing extracted casein as the diet base supplemented with essential vitamins and nutrients; or the same diet supplemented with erlotinib (OSI Pharmaceuticals, LLC, Northbrook, Ill. 60062, USA) to obtain a starting dose of 10 mg/kg/day, Emend® (as aprepitant, Merck & Co., INC. USA) to obtain a starting dose of 2 mg/kg/day, or both agents at these doses. Individually-housed rats were weighed and food consumption recorded daily to obtain actual drug dosage: time-range average erlotinib dose over 9 weeks was 7.07 mg/kg/day, and time-range average Emend dose over 9 weeks was 1.41 mg/kg/day. Rats had free access to distilled-deionized water, and were on a 12 h light/dark cycle for up to 9 weeks. […]

The nature of series [2]: Plasma substance P (SP) by ELISA. It counts as in vivo, Sprague-Dawley rats. To be noted: for increase in circulating SP vs time-matched control: erlotinib. As for the experimental part:
Experiments on animals were conducted in accordance with the principles given in the US Department of Health and Human Services Guide for the Care and Use of Laboratory Animals and were approved by The George Washington University Institutional Animal Care and Use Committee. Male Sprague-Dawley rats (125-150 g) were purchased from Hilltop Lab Animals, Inc. (Scottdale, Pa.). After 1 week of quarantine, all age-matched rats were placed on an ad libitum Mg normal diet (25 mmole magnesium oxide/kg food regarded as 100% recommended daily allowance for rodents) obtained from Harlan-Teklad (Madison, Wis.) containing extracted casein as the diet base supplemented with essential vitamins and nutrients; or the same diet supplemented with erlotinib (OSI Pharmaceuticals, LLC, Northbrook, Ill. 60062, USA) to obtain a starting dose of 10 mg/kg/day, Emend® (as aprepitant, Merck & Co., INC. USA) to obtain a starting dose of 2 mg/kg/day, or both agents at these doses. Individually-housed rats were weighed and food consumption recorded daily to obtain actual drug dosage: time-range average erlotinib dose over 9 weeks was 7.07 mg/kg/day, and time-range average Emend dose over 9 weeks was 1.41 mg/kg/day. Rats had free access to distilled-deionized water, and were on a 12 h light/dark cycle for up to 9 weeks.
as §1
A general note: ELISA stands for enzyme-linked immunosorbent assay.

For series [3] the following is noted: male, Sprague-Dawley, rat, in vivo, 9 weeks. As for the experimental part: Male Sprague-Dawley rats (˜150 g) were purchased from Hilltop Lab Animals (Scottdale, Pa.). After one week of quarantine, the rats were divided into 4 groups: (1) Control group (N=5) receiving Mg normal diet (25 mmole Mg Oxide/kg food); (2) Erlotinib treated group (N=5, receiving erlotinib at a starting dose of 10 mg/kg/day in the diet); (3) Erlotinib+Emend group (N=7, receiving erlotinib plus Emend at a starting dose of 2 mg/kg/day in the diet); and (4) Emend alone group (N=5).

A further series concerns cancer cells. To be noted: through NOX-4 up-regulation; cited from earlier work.
[4] abbreviates: 9 weeks, Emend co-treatment with erlotinib.

On to `C[C@@H](O[C@H]1OCCN(Cc2n[nH]c(=O)[nH]2)[C@H]1c1ccc(F)cc1)c1cc(C(F)(F)F)cc(C(F)(F)F)c1` [Emend, aprepitant], for which, in the series with neutrophils (setting [4]), the “effect on erlotinib-caused increase in basal superoxide generating activity” value was “completely prevented” and the “effect on erlotinib-caused increase in stimulated superoxide generating activity” value was “completely prevented”. In the series on neutrophils (rat, in vivo), the “effect on neutrophil superoxide activity” value was “no effects”. In addition, in series [1], the “food consumption compared to controls” value is reported as “Neither ERL nor Emend affected food consumption”. Moreover, the “effect on erlotinib-induced increases in SP” value in series [2] (Emend co-treatment with erlotinib) is “almost completely blocked”.

`C#Cc1cccc(Nc2ncnc3cc(OCCOC)c(OCCOC)cc23)c1` [Erlotinib, erlotinib]: the “neutrophil basal superoxide generating activity, higher than control” value in the series with neutrophils (rat, in vivo) stood at 3 fold. Also, in series [1], the “food consumption compared to controls” value was “Neither ERL nor Emend affected food consumption”. In addition, the “increase in circulating SP vs time-matched control” value in series [2] (week 3, p<0.05) amounted to 27.3%; in series [2] (week 5, NS) it was 12.3%; in series [2] (week 9, p<0.01) it was 25.4%. Moreover, the “number of animals that developed facial lesion” value in series [3] is listed as 5. For the same compound, in the series on cancer cells, the cellular oxidative stress entry is “can provoke cellular oxidative stress”.
